Measured values as given in ChEMBL document CHEMBL5338738, “Discovery of Novel Sesquiterpene Lactone Derivatives as Potent PKM2 Activators for the Treatment of Ulcerative Colitis” (J Med Chem, 2023).
pIC50: −log10 of the molar value. Calls of active or inactive are those of the source. The rule behind the calls is not given here.

What was measured:
T-cell = test: Immunomodulatory activity in C57BL/6 mouse mesenteric lymph node T cells assessed as inhibition of concanavalin A stimulated T-cell proliferation incubated for 68 hrs by CCK-8 assay; assay type: functional, cell-based; settings: C57BL/6, T-cell
CD4+ve Th [1] = test: (§1) Inhibition of Th17 cells differentiation in anti-CD3/CD28 stimulated C57BL/6 mouse mesenteric lymph node CD4+ve Th cells assessed as downregulation of RORC mRNA expression level at 0.1 to 3 uM incubated for 96 hrs in presence of recombinant human TGF-beta, recombinant mouse IL-6 and recombinant mouse IL-23 by qPCR analysis; assay type: functional, cell-based; settings: dose 0.1-3 µM
CD4+ve Th [2] = test: as §1, with “IL22” for “RORC”; assay type: functional, cell-based; settings: dose 0.1-3 µM
[3] = Inhibition of Treg cells differentiation in anti-CD3/CD28 stimulated C57BL/6 mouse mesenteric lymph node CD4+ve Th cells assessed as decrease in proportion of Foxp3-positive Treg cells at 0.1 uM incubated for 96 hrs in presence of recombinant human TGF-beta by flow cytometry (Rvb= 21.1%); assay type: functional; settings: C57BL/6, CD4+ve Th
[4] = Inhibition of Treg cells differentiation in anti-CD3/CD28 stimulated C57BL/6 mouse mesenteric lymph node CD4+ve Th cells assessed as decrease in proportion of Foxp3-positive Treg cells at 1 uM incubated for 96 hrs in presence of recombinant human TGF-beta by flow cytometry (Rvb= 21.1%); assay type: functional; settings: C57BL/6, CD4+ve Th
[5] = Inhibition of Treg cells differentiation in anti-CD3/CD28 stimulated C57BL/6 mouse mesenteric lymph node CD4+ve Th cells assessed as decrease in proportion of Foxp3-positive Treg cells at 3 uM incubated for 96 hrs in presence of recombinant human TGF-beta by flow cytometry (Rvb= 21.1%); assay type: functional; settings: C57BL/6, CD4+ve Th
CD4+ve Th [6] = test: Inhibition of Treg cells differentiation in anti-CD3/CD28 stimulated C57BL/6 mouse mesenteric lymph node CD4+ve Th cells assessed as change in IL10 mRNA expression level cells at 0.1 to 3 uM incubated for 96 hrs in presence of recombinant human TGF-beta by qPCR analysis; assay type: functional, cell-based; settings: dose 0.1-3 µM
CD4+ve Th [7] = test: Effect on apoptosis in C57BL/6 mouse mesenteric lymph node CD4+ve Th cells assessed as apoptotis rate at 0.3 to 3 uM incubated for 96 hrs by Annexin-V/PI staining based flow cytometry; assay type: functional, cell-based; settings: dose 0.3-3 µM
CD4+ve Th [8] = test: as §1, with “decrease in PKM2” for “downregulation of RORC mRNA”, “in nucleus” for “level”, “Western blot” for “qPCR”; assay type: functional, cell-based; settings: dose 0.1-3 µM
CD4+ve Th [9] = test: as §1, with “increase in PKM2 tetramer formation” for “downregulation of RORC mRNA expression level”, “Western blot” for “qPCR”; assay type: functional, cell-based; settings: dose 0.1-3 µM
CD4+ve Th [10] = test: as §1, with “aerobic glycolysis” for “Th17 cells differentiation”, “Pfk1” for “RORC”, “0.3” for “0.1”; assay type: functional, cell-based; settings: dose 0.3-3 µM
CD4+ve Th [11] = test: as §1, with “aerobic glycolysis” for “Th17 cells differentiation”, “PFK1 protein” for “RORC mRNA”, “0.3” for “0.1”, “Western blot” for “qPCR”; assay type: functional, cell-based; settings: dose 0.3-3 µM
Mus musculus [12] = test: Anti-colitis activity against DSS-induced ulcerative colitis C57BL/6 mouse model assessed as reduction in disease activity index (DAI) score at 12.5 to 25 mg/kg, po for 10 days consecutively; assay type: functional, organism-based; settings: dose 12.5-25 mg/kg, time 10.0 day
Mus musculus [13] = test: Anti-colitis activity against DSS-induced ulcerative colitis C57BL/6 mouse model assessed as reduction in mucosal damage in colon at 12.5 to 25 mg/kg, po for 10 days consecutively by H and E staining based microscopic analysis; assay type: functional, organism-based; settings: dose 12.5-25 mg/kg, time 10.0 day
Mus musculus [14] = test: Anti-colitis activity against DSS-induced ulcerative colitis C57BL/6 mouse model assessed as decrease in IL-1beta mRNA expression level in colon at 12.5 to 25 mg/kg, po for 10 days consecutively by qPCR analysis; assay type: functional, organism-based; settings: dose 12.5-25 mg/kg, time 10.0 day
[15] = Toxicity in C57BL/6 mouse assessed as body weight change at 6.25 to 25 mg/kg, po for 10 days consecutively; assay type: organism-based; settings: in vivo, 240 h, dose 6.25-25 mg/kg, time 10 day
Mus musculus [16] = test: Anti-colitis activity against TNBS-induced ulcerative colitis BALB/c mouse model assessed as decrease in mucosal damage in colon at 12.5 to 25 mg/kg, po for consecutive 7 days by H and E staining based microscopy; assay type: functional, organism-based; settings: dose 12.5-25 mg/kg, time 7.0 day
Mus musculus [17] = test: Anti-colitis activity against DSS-induced ulcerative colitis C57BL/6 mouse model assessed as downregulation of IL17a mRNA expression level in spleen at 12.5 to 25 mg/kg, po for 10 days consecutively by qPCR assay; assay type: functional, organism-based; settings: dose 12.5-25 mg/kg, time 10.0 day
Mus musculus [18] = test: Anti-colitis activity against DSS-induced ulcerative colitis C57BL/6 mouse model assessed as downregulation of IL17a mRNA expression level in colon at 12.5 to 25 mg/kg, po for 10 days consecutively by qPCR assay; assay type: functional, organism-based; settings: dose 12.5-25 mg/kg, time 10.0 day
Mus musculus [19] = test: Anti-colitis activity against DSS-induced ulcerative colitis C57BL/6 mouse model assessed as downregulation of RORC mRNA expression level in spleen at 12.5 to 25 mg/kg, po for 10 days consecutively by qPCR assay; assay type: functional, organism-based; settings: dose 12.5-25 mg/kg, time 10.0 day
Mus musculus [20] = test: Anti-colitis activity against DSS-induced ulcerative colitis C57BL/6 mouse model assessed as downregulation of RORC mRNA expression level in colon at 12.5 to 25 mg/kg, po for 10 days consecutively by qPCR assay; assay type: functional, organism-based; settings: dose 12.5-25 mg/kg, time 10.0 day
Mus musculus [21] = test: Anti-colitis activity against DSS-induced ulcerative colitis C57BL/6 mouse model assessed as downregulation of Foxp3 mRNA expression level in spleen at 6.25 to 25 mg/kg, po for 10 days consecutively by qPCR assay; assay type: functional, organism-based; settings: dose 6.25-25 mg/kg, time 10.0 day
Mus musculus [22] = test: Anti-colitis activity against DSS-induced ulcerative colitis C57BL/6 mouse model assessed as downregulation of Foxp3 mRNA expression level in colon at 6.25 to 25 mg/kg, po for 10 days consecutively by qPCR assay; assay type: functional, organism-based; settings: dose 6.25-25 mg/kg, time 10.0 day
Mus musculus [23] = test: Anti-colitis activity against DSS-induced ulcerative colitis C57BL/6 mouse model assessed as decrease in percentage of Th17 cells in colonic lamina propria at 12.5 to 25 mg/kg, po for 10 days consecutively by flow cytometry; assay type: functional, organism-based; settings: dose 12.5-25 mg/kg, time 10.0 day
[24] = Microsomal stability in rat liver microsomes assessed as hepatic clearance; assay type: ADME, Microsome
[25] = Protein binding in rat plasma assessed as bound fraction; assay type: ADME, cell-free; settings: read-out: PPB (converted)
[26] = Genotoxicity in Salmonella typhimurium by AMES test; assay type: toxicity; settings: salmonella enterica subsp. enterica serovar typhimurium
[27] = Half life in Sprague-Dawley rat at 75 mg/kg,po and measured upto 24 hrs by LC-MS/MS analysis; assay type: ADME, organism-based; settings: in vivo
[28] = Half life in Sprague-Dawley rat at 8 mg/kg,iv and measured upto 24 hrs by LC-MS/MS analysis; assay type: ADME, organism-based; settings: in vivo
[29] = Cmax in Sprague-Dawley rat at 8 mg/kg,iv and measured upto 24 hrs by LC-MS/MS analysis; assay type: ADME, organism-based; set-up: time < 24 hrs, dose 8 mg/kg, route iv; settings: in vivo

With `C=C1C(=O)O[C@H]2[C@H]1CC[C@@]1(C)[C@@H](CC[C@@]3(C)O[C@@H]23)C1(F)F` the pIC50 (T-cell) was 6.23, the inhibition (CD4+ve Th [1]) was “Active” and the inhibition (CD4+ve Th [2]) was “Active”. The Foxp3+ cells at 0.1 µM [3] was 20.3%, the Foxp3+ cells at 1 µM [4] was 22.8% and the Foxp3+ cells at 3 µM [5] was 20.8%. The inhibition (CD4+ve Th [6]) was “inactive”, the Activity (CD4+ve Th [7]) was “inactive” and the inhibition (CD4+ve Th [8]) was “Active”. The inhibition (CD4+ve Th [9]) was “Active”, the inhibition (CD4+ve Th [10]) was “Active” and the inhibition (CD4+ve Th [11]) was “Active”. For the same compound, the Activity (Mus musculus [12]) was “Active”, the Activity (Mus musculus [13]) was “Active” and the Activity (Mus musculus [14]) was “Active”. For the same compound, the Activity [15] was “Non-Toxic”, the Activity (Mus musculus [16]) was “Active” and the Activity (Mus musculus [17]) was “Active”. The Activity (Mus musculus [18]) was “Active”, the Activity (Mus musculus [19]) was “Active” and the Activity (Mus musculus [20]) was “Active”. For the same compound, the Activity (Mus musculus [21]) was “inactive”, the Activity (Mus musculus [22]) was “inactive” and the Activity (Mus musculus [23]) was “Active”. The CLhep predicted [24] was 43.1 mL/min/kg, the fraction unbound [25] was 0.201 and the Activity [26] was “Non-Toxic”. The half-life [27] was 8 h, the half-life [28] was 2 h and the Cmax [29] was 190 ng/mL.
